Measured values reported in patent publication US8420605B2, “Hydrogel compositions” (The University of Strathclyde, priority 2005, dated 2013).
Peptide text beside a SMILES is read from it. * marks the point of attachment. Fmoc = O=C(OCC1c2ccccc2-c2ccccc21)*

System: Human dermal fibroblasts
Assay type: cell-based
From the text: In order to coarsely test cell viability, a Live/Dead assay was chosen in which two reagents of EthD-1 and Calcine AM were involved. […] With the help of this staining and fluorescence microscope, living and dead cells could be easily visualized therefore viability inside the culture is measured.
For making Fmoc-Phe-Phe-OH peptide solution, 0.0107 gram of Fmoc-Phe-Phe-OH was weighed in a glass vial and sterilized for 30 minutes by an ultraviolet light with bottles of distilled water, filtered NaOH (Sodium Hydroxide, 0.5 M/L), filtered HCl (Hydrochloric Acid, 0.5 M/L), and relevant apparatus (spatulas, pipettes, Vortex). 2 mL of the sterile distilled water was then added into the glass vial of Fmoc-Phe-Phe-OH, and the mixture was vortexed for a few seconds to create a suspension. Afterwards, approximate 100 μL of NaOH was gradually pipetted into the suspension (20 μL each pipetting) and the mixture was vortexed after every addition of the alkaline. […] The basic peptide solution (pH around 10) was finally neutralized to pH 7 by dropwise addition of HCl and pH values were monitored by a pH meter with a micro-probe. […]

**Q.** Which “cell viability (live/dead staining)” value does the source give for `O=C(N[C@@H](Cc1ccccc1)C(=O)N[C@@H](Cc1ccccc1)C(=O)O)OCC1c2ccccc2-c2ccccc21` [Entry 1, Fmoc-Phe-Phe-OH] (Fmoc-Phe-Phe-OH) here?
**A.** The value was “majority of cells were shown to be living”.

**Q.** And the “cell spreading in the gel” value (during the first 3 days, 3D culture)?
**A.** The value was “did not complete spreading”.
